Results reported in patent US12338237B2, “Derivatives having 1,2,3,4-tetrahydronaphthalene moiety or pharmaceutically acceptable salt thereof and pharmaceutical compositions comprising the same” (YUHAN CORPORATION, priority 2019, dated 2025).

Tests used:
[1] = target: glucosylceramide synthase (GCS) (Homo sapiens (Human), UniProt Q16739); test: Evaluation of inhibitory activities against GCS (enzyme reaction with A549 cell lysate, NBD C6-ceramide, HPLC fluorescence); format: biochemical; conditions: GCS activity in A549 cell lysate, 37° C. for 90 minutes
glucosylceramide synthase (GCS), sequence (Q16739 whole entry, looked up): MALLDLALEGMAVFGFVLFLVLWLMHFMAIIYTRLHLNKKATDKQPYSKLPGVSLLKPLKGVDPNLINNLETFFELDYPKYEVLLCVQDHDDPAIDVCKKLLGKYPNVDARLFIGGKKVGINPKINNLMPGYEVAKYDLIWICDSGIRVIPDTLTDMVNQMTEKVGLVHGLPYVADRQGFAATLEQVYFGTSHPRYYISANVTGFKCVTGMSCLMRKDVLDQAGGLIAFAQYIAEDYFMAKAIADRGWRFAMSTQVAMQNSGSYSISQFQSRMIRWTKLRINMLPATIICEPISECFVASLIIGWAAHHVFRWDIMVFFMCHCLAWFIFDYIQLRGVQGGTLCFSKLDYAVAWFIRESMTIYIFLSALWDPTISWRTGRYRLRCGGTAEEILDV
Summary of the method: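 Lysate of A549 cells in 50 mM HEPES pH 7.3 incubated with test compound and NBD C6-ceramide at 37 °C for 90 min; lipids extracted with chloroform/methanol and GlcCer and ceramide peaks quantified by HPLC fluorescence. Activity from GlcCer area fraction, normalised between DMSO and ibiglustat controls.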

GM1 production = test: cells; format: cell-based; conditions: Homo sapiens, Jurkat, 72 h

Row | Structure (SMILES) | IC50 [1] | IC50 (GM1 production)
1 | COc1ccc(-c2ccc3c(c2)CCC2(CC2)C3NC(=O)O[C@@H]2CN3CCC2CC3)cc1F (stereo partly drawn) [Example 202, (S)-quinuclidin-3-yl (6′-(3-fluoro-4-methoxyphenyl)-3′,4′-dihydro-1′H-spiro[cyclopropane-1,2′-naphthalen]-1′-yl)carbamate] | 1.16 nM | 24.4 nM
2 | CCCc1ccc(-c2cc3c(cc2OC)C(NC(=O)O[C@@H]2CN4CCC2CC4)C(C)(C)CC3)cc1 (stereo partly drawn) [Example 235, (S)-quinuclidin-3-yl (7-methoxy-2,2-dimethyl-6-(4-propylphenyl)-1,2,3,4-tetrahydronaphthalen-1-yl)carbamate] | 0.19 nM | 3.2 nM
3 | O=C(NC1CCCc2ccc(-c3ccccc3Cl)cc21)O[C@@H]1CN2CCC1CC2 (stereo partly drawn) [Example 62, (S)-quinuclidin-3-yl (7-(2-chlorophenyl)-1,2,3,4-tetrahydronaphthalen-1-yl)carbamate] | 7.37 nM | 49.2 nM
4 | CC(C)(C)c1cccc(-c2ccc3c(c2)CCCC3NC(=O)O[C@@H]2CN3CCC2CC3)c1 (stereo partly drawn) [Example 39, (S)-quinuclidin-3-yl (6-(3-(tert-butyl)phenyl)-1,2,3,4-tetrahydronaphthalen-1-yl)carbamate] | 2.88 nM | 849 nM
5 | CC1(C)CCc2ccc(-c3ccccc3F)cc2C1NC(=O)O[C@@H]1CN2CCC1CC2 (stereo partly drawn) [Example 159, (S)-quinuclidin-3-yl (7-(2-fluorophenyl)-2,2-dimethyl-1,2,3,4-tetrahydronaphthalen-1-yl)carbamate] | 10.9 nM | 49.8 nM
6 | O=C(NC1c2cc(-c3ccc(F)cc3)ccc2CCC12CC2)O[C@@H]1CN2CCC1CC2 (stereo partly drawn) [Example 171, (S)-quinuclidin-3-yl (7′-(4-fluorophenyl)-3′,4′-dihydro-1′H-spiro[cyclopropane-1,2′-naphthalen]-1′-yl)carbamate] | 5.33 nM | 94.9 nM
7 | O=C(NC1c2cc(-c3ccc(C(F)(F)F)cc3)ccc2CCC12CC2)O[C@@H]1CN2CCC1CC2 (stereo partly drawn) [Example 173, (S)-quinuclidin-3-yl (7′-(4-(trifluoromethyl)phenyl)-3′,4′-dihydro-1′H-spiro[cyclopropane-1,2′-naphthalen]-1′-yl)carbamate] | 1.61 nM | 18.9 nM
8 | Cc1cc(-c2ccc3c(c2)CCCC3NC(=O)O[C@@H]2CN3CCC2CC3)ccn1 (stereo partly drawn) [Example 50, (S)-quinuclidin-3-yl (6-(2-methylpyridin-4-yl)-1,2,3,4-tetrahydronaphthalen-1-yl)carbamate] | 33.5 nM | 2190 nM
9 | COc1ccc(-c2ccc3c(c2)CCC(C)(C)C3NC(=O)O[C@@H]2CN3CCC2CC3)cc1OC (stereo partly drawn) [Example 137, (S)-quinuclidin-3-yl (6-(3,4-dimethoxyphenyl)-2,2-dimethyl-1,2,3,4-tetrahydronaphthalen-1-yl)carbamate] | 2.14 nM | 8.4 nM
10 | CC(C)Oc1ccc(-c2ccc3c(c2)CCC2(CC2)C3NC(=O)O[C@@H]2CN3CCC2CC3)cc1 (stereo partly drawn) [Example 219, (S)-quinuclidin-3-yl (6′-(4-isopropoxyphenyl)-3′,4′-dihydro-1′H-spiro[cyclopropane-1,2′-naphthalen]-1′-yl)carbamate] | 1.1 nM | 16 nM
11 | O=C(NC1CCCc2cc(-c3ccc(Cl)cc3)ccc21)O[C@@H]1CN2CCC1CC2 (stereo partly drawn) [Example 2, (S)-quinuclidin-3-yl (6-(4-chlorophenyl)-1,2,3,4-tetrahydronaphthalen-1-yl)carbamate] | 3.04 nM | 54.5 nM
12 | CC1(C)CCc2cc(-c3ccccc3OC(F)(F)F)ccc2C1NC(=O)O[C@@H]1CN2CCC1CC2 (stereo partly drawn) [Example 97, (S)-quinuclidin-3-yl (2,2-dimethyl-6-(2-(trifluoromethoxy)phenyl)-1,2,3,4-tetrahydronaphthalen-1-yl)carbamate] | 0.86 nM | 1.39 nM
13 | CC1(C)CCc2ccc(-c3ccccc3OC(F)(F)F)cc2C1NC(=O)O[C@@H]1CN2CCC1CC2 (stereo partly drawn) [Example 162, (S)-quinuclidin-3-yl (2,2-dimethyl-7-(2-(trifluoromethoxy)phenyl)-1,2,3,4-tetrahydronaphthalen-1-yl)carbamate] | 10.6 nM | 57.4 nM
14 | O=C(NC1c2ccc(-c3ccc(C(F)(F)F)cc3)cc2CCC12CC2)O[C@@H]1CN2CCC1CC2 (stereo partly drawn) [Example 188, (S)-quinuclidin-3-yl (6′-(4-(trifluoromethyl)phenyl)-3′,4′-dihydro-1′H-spiro[cyclopropane-1,2′-naphthalen]-1′-yl)carbamate] | 16.1 nM | 34.1 nM
15 | CC(C)c1cccc(-c2ccc3c(c2)CCC(C)(C)C3NC(=O)O[C@@H]2CN3CCC2CC3)c1 (stereo partly drawn) [Example 129, (S)-quinuclidin-3-yl (6-(3-isopropylphenyl)-2,2-dimethyl-1,2,3,4-tetrahydronaphthalen-1-yl)carbamate] | 2.08 nM | 1.3 nM
16 | COc1cc(-c2ccc3c(c2)CCC2(CC2)C3NC(=O)O[C@@H]2CN3CCC2CC3)ccc1Cl (stereo partly drawn) [Example 201, (S)-quinuclidin-3-yl (6′-(4-chloro-3-methoxyphenyl)-3′,4′-dihydro-1′H-spiro[cyclopropane-1,2′-naphthalen]-1′-yl)carbamate] | 33.5 nM | 111 nM
17 | CCc1cccc(-c2ccc3c(c2)CCCC3NC(=O)O[C@@H]2CN3CCC2CC3)c1 (stereo partly drawn) [Example 38, (S)-quinuclidin-3-yl (6-(3-ethylphenyl)-1,2,3,4-tetrahydronaphthalen-1-yl)carbamate] | 1.7 nM | 316 nM
18 | COCCOc1ccccc1-c1ccc2c(c1)C(NC(=O)O[C@@H]1CN3CCC1CC3)C(C)(C)CC2 (stereo partly drawn) [Example 167, (S)-quinuclidin-3-yl (7-(2-(2-methoxyethoxy)phenyl)-2,2-dimethyl-1,2,3,4-tetrahydronaphthalen-1-yl)carbamate] | 19.6 nM | 103 nM
19 | CC1(C)CCc2ccc(-c3cccc(F)c3)cc2C1NC(=O)O[C@@H]1CN2CCC1CC2 (stereo partly drawn) [Example 155, (S)-quinuclidin-3-yl (7-(3-fluorophenyl)-2,2-dimethyl-1,2,3,4-tetrahydronaphthalen-1-yl)carbamate] | 21 nM | 108 nM
20 | CC(C)Oc1ccc(-c2ccc3c(c2)CCC(C)(C)C3NC(=O)O[C@@H]2CN3CCC2CC3)cc1Cl (stereo partly drawn) [Example 149, (S)-quinuclidin-3-yl (6-(3-chloro-4-isopropoxyphenyl)-2,2-dimethyl-1,2,3,4-tetrahydronaphthalen-1-yl)carbamate] | 3.5 nM | 3.9 nM
21 | COc1cccc(-c2ccc3c(c2)CCC(C)(C)C3NC(=O)O[C@@H]2CN3CCC2CC3)c1OC (stereo partly drawn) [Example 133, (S)-quinuclidin-3-yl (6-(2,3-dimethoxyphenyl)-2,2-dimethyl-1,2,3,4-tetrahydronaphthalen-1-yl)carbamate] | 1.05 nM | 1 nM
22 | O=C(NC1CCCc2cc(-c3ccccc3C(F)(F)F)ccc21)O[C@@H]1CN2CCC1CC2 (stereo partly drawn) [Example 11, (S)-quinuclidin-3-yl (6-(2-(trifluoromethyl)phenyl)-1,2,3,4-tetrahydronaphthalen-1-yl)carbamate] | 8.18 nM | 38.5 nM
23 | CC1(C)CCc2cc(-c3ccc(F)c(F)c3F)ccc2C1NC(=O)O[C@@H]1CN2CCC1CC2 (stereo partly drawn) [Example 109, (S)-quinuclidin-3-yl (2,2-dimethyl-6-(2,3,4-trifluorophenyl)-1,2,3,4-tetrahydronaphthalen-1-yl)carbamate] | 2.89 nM | 2.97 nM
